Assay results published in patent US5167949A, “4(3H)-pteridinones, preparation processes and drugs containing them” (Lipha, Lyonnaise Industrielle Pharmaceutique, priority 1989, dated 1992).
Like-named read-outs stand apart in the source and are kept apart here.

Key:
[1] = system: passive cutaneous anaphylaxis; test: passive cutaneous anaphylaxis (PCA) test; type: in vivo; settings: Rattus norvegicus, rats, dose decreasing by 50% the skin area occupied by the dye
Experimental: The anti-allergic activity was measured in rats by the passive cutaneous anaphylaxis or PCA test described by I. Mota, Life Sciences 1963, 7, 465 and Z. Ovary et al., Proceedings of Society of Experimental Biology and Medicine 1952, 81, 584.
In this test, the skin of rats is sensitized by 4 intradermal injections of a homologous anti-ovalbumin serum diluted 15-fold. On the day following sensitization, the animals receive 1 ml/kg of a 2.5% saline solution of Evans blue and 1 ml/kg of a 2.5% saline solution of ovalbumin simultaneously by intravenous injection. The test compounds are administered before the antigen, the time interval being 5 min by intraperitoneal injection and 10 min by the oral route. Thirty minutes after injection of the ovalbumin/dye mixture, the animals are sacrificed and the intensity of the allergic response is determined by measuring the area of skin coloration. The protection provided by the products of the invention is expressed as an ED50 (dose decreasing by 50% the skin area occupied by the dye). Four rats are used for each dose of product.

[2] = system: PAF-acether; test: bronchospasm induced in anaesthetized guinea pigs by PAF-acether; type: in vivo; settings: Cavia porcellus, intravenous, PAF-acether 10 ng/kg/IV
Text: The compounds described are distinguished, in addition, from known products by their long duration of action and by a capacity for antagonizing the effects of PAF-acether, especially its bronchoconstrictor effects.

[3] = in vivo; settings: read-out: median lethal dose
Experimental: By way of illustration, for the compound described in Example 1, the median lethal doses determined orally on rats and on mice are above 2,000 mg/kg, and the median lethal doses determined intraperitoneally and intravenously on mice are above 1,600 mg/kg.

[4] = ip, intraperitoneal, 5 min before antigen

## CC(C)OCc1nc2nccnc2c(=O)[nH]1 [Example 13, 2-Isopropoxymethyl-4(3H)-pteridinone]
[1]; [4]
  ED50: 14 mg/kg

## O=c1[nH]c(COc2ccccc2)nc2nccnc12 [Example 9, 2-Phenoxymethyl-4(3H)-pteridinone]
[1]; [4]
  ED50: 39 mg/kg

## CCCOCc1nc2nccnc2c(=O)[nH]1 [Example 4, 2-Propoxymethyl-4(3H)-pteridinone]
[1]; [4]
  ED50: 9 mg/kg
[1]; oral, 10 min before antigen
  ED50: 25 mg/kg

## O=c1[nH]c(COCc2ccccc2)nc2nccnc12 [Example 11, 2-Benzyloxymethyl-4(3H)-pteridinone]
[1]; [4]
  ED50: 10 mg/kg
[1]; oral, 10 min before antigen
  ED50: 48 mg/kg

## COCOCc1nc2nccnc2c(=O)[nH]1 [Example 12, 2-Methoxymethoxymethyl-4(3H)-pteridinone]
[1]; [4]
  ED50: 18 mg/kg

## CCOCc1nc2nccnc2c(=O)[nH]1 [Example 1, 2-Ethoxymethyl-4(3H)-pteridinone]
[1]; [4]
  ED50: 7 mg/kg
[1]; oral, 10 min before antigen
  ED50: 24 mg/kg
[2]
  ED50: 0.068 mg/kg
[3]; mouse, ip, mice, intraperitoneal
  LD50: > 1600 mg/kg
[3]; mouse, mice, intravenous
  LD50: > 1600 mg/kg
[3]; mouse, mice, oral
  LD50: > 2000 mg/kg
[3]; rat, rats, oral
  LD50: > 2000 mg/kg

## CCOCc1nc2nc(O)cnc2c(=O)[nH]1 [Example 7, 2-Ethoxymethyl-7-hydroxy-4(3H)-pteridinone]
[1]; [4]
  ED50: 21 mg/kg

## COCc1nc2nccnc2c(=O)[nH]1 [Example 3, 2-Methoxymethyl-4(3H)-pteridinone]
[1]; [4]
  ED50: 14 mg/kg
[1]; oral, 10 min before antigen
  ED50: 33 mg/kg
